Experimental data reported in BigSolDB 2.1.

O=C(O)c1cc2ccccc2cc1O
solubility (mole fraction)
Conditions	in acetic acid	in acetone	in ethanol	in ethyl acetate	in isobutanol	in isopropanol	in methanol	in methyl acetate	in n-butanol	in n-propanol
293.15 K	0.00556	0.0363	0.0218	0.0222	0.0147	0.0234	0.0131	0.0204	0.0268	0.0234
298.15 K	0.00672	0.0389	0.0258	0.0251	0.0174	0.0267	0.0155	0.0225	0.03	0.0259
303.15 K	0.00786	0.0423	0.0294	0.0278	0.0207	0.0306	0.018	0.025	0.0346	0.0288
308.15 K	0.00913	0.0461	0.0331	0.0309	0.0236	0.035	0.0208	0.0286	0.0382	0.0323
313.15 K	0.0105	0.0506	0.037	0.0338	0.0279	0.0406	0.0239	0.0318	0.0431	0.0372
318.15 K	0.0121	0.0547	0.0415	0.0375	0.0316	0.0446	0.0271	0.0349	0.0466	0.0402
323.15 K	0.014	0.0607	0.0469	0.0417	0.0377	0.0514	0.0313	0.0402	0.0529	0.0453
328.15 K	0.0164	0.0661	0.0537	0.0468	0.0421	0.0565	0.0358	0.0447	0.0579	0.0513
333.15 K	0.0192	–	0.0619	0.0533	0.0501	0.0649	0.0415	–	0.0663	0.0574
